Target: T1, Mineralocorticoid Receptor (MR) (Homo sapiens, UniProt P08235)
T1 construct: expressed in transfected cells; host or cells: 293T cells (ATCC)
T1 sequence (P08235 672-984): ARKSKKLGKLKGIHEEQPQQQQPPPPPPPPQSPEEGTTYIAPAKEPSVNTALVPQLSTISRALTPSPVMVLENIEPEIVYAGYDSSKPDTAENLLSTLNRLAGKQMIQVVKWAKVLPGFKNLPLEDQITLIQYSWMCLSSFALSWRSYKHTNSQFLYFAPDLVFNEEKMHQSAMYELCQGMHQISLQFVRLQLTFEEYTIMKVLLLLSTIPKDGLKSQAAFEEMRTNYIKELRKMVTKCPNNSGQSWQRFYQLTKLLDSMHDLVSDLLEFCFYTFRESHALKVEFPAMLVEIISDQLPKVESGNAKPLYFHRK
Experiment: Functional assay of mineralocorticoid receptor antagonism (Gal4-MR mammalian two hybrid luciferase reporter, 293T cells)
Format: cell-based
Details: antagonism of aldosterone (0.4 nM)-induced MR activity
Procedure: The MR antagonist activity of the compounds is determined in a mammalian two hybrid reporter system. The N-terminus of MR (MR-NT, sequence coding amino acid 1-597) is fused to the activation domain of the VP16 gene. The ligand binding domain of MR (MR-LBD, sequence encoding amino acid 672-984) is fused to the DNA binding domain of the yeast Gal4 gene. The MR gene is cloned from a human kidney cDNA library with PCR.
The assay is performed in 384 well plates. Briefly, 293T cells (ATCC) are transfected with expression vectors for Gal-4-MR-LBD and VP16-MR NT, and a luciferase reporter vector containing Gal4 binding sequence (pG5-Luc). Cells are plated in 384 well plates immediately after transfection (approximately 3×10^4 cells/well in 50 μl medium). The medium is supplemented with 3% charcoal-dextran treated fetal bovine serum (Hyclone). Twenty four hours after transfection, compounds prepared in DMSO are transferred to the cells. The cells are then stimulated with 0.4 nM final concentration of aldosterone (Acros) and incubated at 37° C. for another 24 hours before the luciferase activity is assayed with 20 μl of Bright-Glo (Promega) using a luminometer (CLIPR). The expression of luciferase is used as an indicator of aldosterone-induced MR trans-activation. Each compound is tested in duplicates with 12-concentration titration. IC50 values (defined as the concentration of test compound required to antagonize 50% of aldosterone-induced MR activity) are determined from the dose-response curve.

Structure (SMILES) | IC50
C1=Cc2ccccc2C2(CN=C(c3ccccc3)O2)c2ccccc21 [OXS-2] | 100 to 1000 nM
CC1(C)OC2(CN1C(=O)c1ccccc1)c1ccccc1C=Cc1ccccc12 [SOXS-5] | 100 to 1000 nM
COc1ccc(C2=NCC3(O2)c2ccccc2C=Cc2ccccc23)cc1 [OXS-3] | 100 to 1000 nM

Next, values leading:

IC50 | Structure (SMILES)
100 to 1000 nM | O=C1CCC2(c3ccn(S(=O)(=O)c4ccccc4)c3)OC3(CN12)c1ccccc1C=Cc1ccccc13 (centres unmarked) [FRS-12]
< 100 nM | O=C1CCC2(c3ccc(Br)cc3)OC3(CN12)c1ccccc1C=Cc1ccccc13 (centres unmarked) [FRS-7]

— patent US7807841B2, “Spiro-containing compounds and compositions as modulators of steroid hormone nuclear receptors” (IRM LLC, priority 2005, dated 2010)
